Experimental data from publication PMC2879362, “Design of Group IIA Secreted/Synovial Phospholipase A2 Inhibitors: An Oxadiazolone Derivative Suppresses Chondrocyte Prostaglandin E2 Secretion” (PLoS ONE, 2010).

Assays:
iNOS = assay: Western blot of iNOS protein level in IL-1β-treated chondrocytes; assay type: cell-based, rabbit; details: C8 0.31-1.24 µM in DMEM, IL-1β 20 h
Experimental: (§1) As expected, COX-1 protein was detectable but COX-2 and iNOS proteins were undetectable in untreated control conditions (Fig. 6A). […] Consequently, the protein ratio of COX-1 to COX-2 was not modified by C8 (Fig. 6B). […] Cell lysates were centrifuged for 15 min at 14000 rpm at 4°C and supernatants were collected. Protein concentrations were determined by the Bradford method by use of the Protein Assay dye reagent (Bio-Rad). Protein extracts (20 µg) were size-separated by SDS-PAGE in a 10% (w/v) polyacrylamide gel and electroblotted to a nitrocellulose membrane. Equal protein loading and transfer was confirmed by staining the membrane with Ponceau Red [0.2% (w/v) in H2O:acetic acid 99∶1]. The membrane was sequentially incubated with antibodies against COX-1 (1∶200, Santa Cruz Biotechnology), COX-2 (1∶500, Santa Cruz Biotechnology), iNOS (1∶400, BD Biosciences) or α-tubulin (1∶100, Santa Cruz Biotechnology) and then with peroxidase-conjugated donkey anti-goat IgG (1∶20000) or donkey anti-rabbit IgG (1∶200, both Santa Cruz Biotechnology). Immunocomplexes were detected by an enhanced chemiluminescence kit (Amersham Bioscience). The membrane was stripped by incubation in 0.2 M NaOH between successive immunodetections. Semi-quantitative scanning densitometry involved use of the ImageJ program (NIH, USA).

COX-2 = assay: Western blot of COX-2 protein level in IL-1β-treated chondrocytes; assay type: cell-based, rabbit; details: C8 0.31-1.24 µM in DMEM, IL-1β 20 h
Experimental: as §1

## O=c1[nH]c(Cc2ccc(OCCCCCOc3cc4ccccc4c4ccccc34)cc2)no1 [C8]
iNOS
  effect on iNOS protein level: did not alter
COX-2
  effect on COX-2 protein level: did not alter
